Test results taken from the supplement of paper PMC10307832.

Legend:
Assay in all cases: relative viability (nuclei count vs DMSO), 5 days (fraction); higher = more cells survive
[1] = test system: 201T
Procedure, shortened: (§1)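 Medians of duplicate plates are given as relative viability. That measure is the nuclei count in treated wells divided by the count in vehicle wells. Counts were taken on 4× images of lung cancer cell lines in 1536-well plates, 5 days after pin-tool dosing the day after seeding with one drug alone or a fixed anchor-drug dose plus five library-drug doses (not always all listed) in √10 steps.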

[2] = test system: A-427
Procedure, shortened: as §1

[3] = test system: BEN
Procedure, shortened: as §1

[4] = test system: COR-L 105
Procedure, shortened: as §1

[5] = test system: COR-L23
Procedure, shortened: as §1

[6] = test system: EKVX
Procedure, shortened: as §1

[7] = test system: HARA
Procedure, shortened: as §1

[8] = test system: HCC-15
Procedure, shortened: as §1

[9] = test system: HCC-44
Procedure, shortened: as §1

[10] = test system: HCC-827
Procedure, shortened: as §1

[11] = test system: LK-2
Procedure, shortened: as §1

[12] = test system: NCI-H1437
Procedure, shortened: as §1

[13] = test system: NCI-H1666
Procedure, shortened: as §1

[14] = test system: NCI-H1792
Procedure, shortened: as §1

[15] = test system: NCI-H1975
Procedure, shortened: as §1

[16] = test system: NCI-H23
Procedure, shortened: as §1

[17] = test system: NCI-H358
Procedure, shortened: as §1

[18] = test system: NCI-H441
Procedure, shortened: as §1

[19] = test system: NCI-H596
Procedure, shortened: as §1

[20] = test system: NCI-H650
Procedure, shortened: as §1

[21] = test system: NCI-H838
Procedure, shortened: as §1

[22] = test system: SK-MES-1
Procedure, shortened: as §1

[23] = test system: SW 900
Procedure, shortened: as §1

Structure (SMILES): Oc1nc(-c2ccc(C(F)(F)F)cc2)nc2c1CSCC2 [XAV939] + COc1cccc2cc(-c3nc([C@H]4CC[C@H](C(=O)O)CC4)n4ncnc(N)c34)[nH]c12 [OSI-027] (partner 0.5 µM)
- relative viability ([1]; first compound 0.08 µM): 0.61
- relative viability ([1]; first compound 0.253 µM): 0.487
- relative viability ([1]; first compound 0.8 µM): 0.575
- relative viability ([1]; first compound 2.53 µM): 0.622
- relative viability ([2]; first compound 0.08 µM): 0.49
- relative viability ([2]; first compound 0.253 µM): 0.427
- relative viability ([2]; first compound 0.8 µM): 0.419
- relative viability ([2]; first compound 2.53 µM): 0.393
- relative viability ([3]; first compound 0.08 µM): 0.28
- relative viability ([3]; first compound 0.253 µM): 0.303
- relative viability ([3]; first compound 0.8 µM): 0.314
- relative viability ([3]; first compound 2.53 µM): 0.309
- relative viability ([4]; first compound 0.08 µM): 0.722
- relative viability ([4]; first compound 0.253 µM): 0.589
- relative viability ([4]; first compound 0.8 µM): 0.5
- relative viability ([4]; first compound 2.53 µM): 0.482
- relative viability ([5]; first compound 0.08 µM): 0.824
- relative viability ([5]; first compound 0.253 µM): 0.765
- relative viability ([5]; first compound 0.8 µM): 0.77
- relative viability ([5]; first compound 2.53 µM): 0.618
- relative viability ([6]; first compound 0.08 µM): 0.719
- relative viability ([6]; first compound 0.253 µM): 0.686
- relative viability ([6]; first compound 0.8 µM): 0.593
- relative viability ([6]; first compound 2.53 µM): 0.532
- relative viability ([7]; first compound 0.08 µM): 0.436
- relative viability ([7]; first compound 0.253 µM): 0.424
- relative viability ([7]; first compound 0.8 µM): 0.3
- relative viability ([7]; first compound 2.53 µM): 0.467
- relative viability ([8]; first compound 0.08 µM): 0.797
- relative viability ([8]; first compound 0.253 µM): 0.619
- relative viability ([8]; first compound 0.8 µM): 0.738
- relative viability ([8]; first compound 2.53 µM): 0.655
- relative viability ([9]; first compound 0.08 µM): 0.611
- relative viability ([9]; first compound 0.253 µM): 0.533
- relative viability ([9]; first compound 0.8 µM): 0.476
- relative viability ([9]; first compound 2.53 µM): 0.726
- relative viability ([10]; first compound 0.08 µM): 0.817
- relative viability ([10]; first compound 0.253 µM): 0.744
- relative viability ([10]; first compound 0.8 µM): 0.826
- relative viability ([10]; first compound 2.53 µM): 0.711
- relative viability ([11]; first compound 0.08 µM): 0.168
- relative viability ([11]; first compound 0.253 µM): 0.232
- relative viability ([11]; first compound 0.8 µM): 0.188
- relative viability ([11]; first compound 2.53 µM): 0.206
- relative viability ([12]; first compound 0.08 µM): 1.03
- relative viability ([12]; first compound 0.253 µM): 0.877
- relative viability ([12]; first compound 0.8 µM): 0.89
- relative viability ([12]; first compound 2.53 µM): 0.783
- relative viability ([13]; first compound 0.08 µM): 0.883
- relative viability ([13]; first compound 0.253 µM): 0.711
- relative viability ([13]; first compound 0.8 µM): 0.752
- relative viability ([13]; first compound 2.53 µM): 0.627
- relative viability ([14]; first compound 0.08 µM): 0.82
- relative viability ([14]; first compound 0.253 µM): 0.677
- relative viability ([14]; first compound 0.8 µM): 0.839
- relative viability ([14]; first compound 2.53 µM): 0.672
- relative viability ([15]; first compound 0.08 µM): 0.829
- relative viability ([15]; first compound 0.253 µM): 0.639
- relative viability ([15]; first compound 0.8 µM): 0.681
- relative viability ([15]; first compound 2.53 µM): 0.526
- relative viability ([16]; first compound 0.08 µM): 0.65
- relative viability ([16]; first compound 0.253 µM): 0.555
- relative viability ([16]; first compound 0.8 µM): 0.628
- relative viability ([16]; first compound 2.53 µM): 0.432
- relative viability ([17]; first compound 0.08 µM): 0.793
- relative viability ([17]; first compound 0.253 µM): 0.624
- relative viability ([17]; first compound 0.8 µM): 0.785
- relative viability ([17]; first compound 2.53 µM): 0.605
- relative viability ([18]; first compound 0.08 µM): 0.657
- relative viability ([18]; first compound 0.253 µM): 0.794
- relative viability ([18]; first compound 0.8 µM): 0.697
- relative viability ([18]; first compound 2.53 µM): 0.568
- relative viability ([19]; first compound 0.08 µM): 0.803
- relative viability ([19]; first compound 0.253 µM): 0.796
- relative viability ([19]; first compound 0.8 µM): 0.768
- relative viability ([19]; first compound 2.53 µM): 0.622
- relative viability ([20]; first compound 0.08 µM): 0.52
- relative viability ([20]; first compound 0.253 µM): 0.565
- relative viability ([20]; first compound 0.8 µM): 0.493
- relative viability ([20]; first compound 2.53 µM): 0.37
- relative viability ([21]; first compound 0.08 µM): 0.375
- relative viability ([21]; first compound 0.253 µM): 0.371
- relative viability ([21]; first compound 0.8 µM): 0.365
- relative viability ([21]; first compound 2.53 µM): 0.301
- relative viability ([22]; first compound 0.08 µM): 0.576
- relative viability ([22]; first compound 0.253 µM): 0.584
- relative viability ([22]; first compound 0.8 µM): 0.631
- relative viability ([22]; first compound 2.53 µM): 0.424
- relative viability ([23]; first compound 0.08 µM): 0.779
- relative viability ([23]; first compound 0.253 µM): 0.572
- relative viability ([23]; first compound 0.8 µM): 0.687
- relative viability ([23]; first compound 2.53 µM): 0.476
